{"source": "patent US12258339B2", "about": "“Macrocyclic complexes of alpha-emitting radionuclides and their use in targeted radiotherapy of cancer” (Cornell University, priority 2018, dated 2025)", "key": {"[1]": {"experiment": "Kinetic inertness of La^3+ and Lu^3+ complexes of macropa: transchelation challenge with EDTA/DTPA", "type": "physicochemical", "conditions": "in the presence of 1000 equiv of DTPA, pH 7.4, monitored 21 days by UV", "experimental": "Kinetic Inertness of La^3+ and Lu^3+ Complexes of Macropa: Transchelation Challenge. A stock solution of ethylenediaminetetraacetic acid (EDTA, 100 mM) was made in MOPS buffer (prepared as described above) by adjusting the pH of the initial suspension to 6.6 using aqueous NMe4OH.\nThe preformed La^3+ and Lu^3+ complexes of macropa were challenged with EDTA.\nThe complex formed in situ between La^3+ and macropa was more rigorously challenged with excess DTPA. A solution containing 500 μM of complex, prepared using the LaCl3 and macropa stock solutions described above, was left to equilibrate for 5 min.\nBefore assessing its Ac-chelation properties, complex formation was evaluated in situ between macropa and cold La^3+ and Lu^3+ ions."}, "[2]": {"experiment": "In vivo biodistribution of ^225Ac complexes of macropa and DOTA and of ^225Ac(NO3)3 in mice", "set-up": "species or system C57BL/6 mice", "protocol": "In Vivo Biodistribution of ^225Ac Complexes of Macropa and DOTA. All experiments were approved by the Institutional Animal Care Committee (IACC) of the University of British Columbia and were performed in accordance with the Canadian Council on Animal Care Guidelines. A total of 9 female C57BL/6 mice (6-8 weeks old, 20-25 g) were used for the biodistribution study of each radiometal complex, n=3 for each time point.\nMacropa (100 μL of a 1 mg/mL solution in NH4OAc) was diluted with 387 μL of NH4OAc (1 M, pH 7), and an aliquot (203 μL) of ^225Ac(NO3)3 (˜157 kBq) was then added; the pH of this solution was adjusted to 6.5-7 by the addition of 1 M NaOH (210 μL, trace metal grade). After 5 min at ambient temperature, the reaction solution was analyzed by TLC (0.4 M pH 4 sodium citrate as the eluent), which confirmed >95% radiochemical yield. The reaction was allowed to proceed overnight, and the radiochemical yield was again confirmed to be >95% the following morning. At this time, mice were anesthetized by 2% isoflurane, and approximately 100 μL (10-15 kBq) of the [^225Ac(macropa)]^+ complex were injected into the tail vein of each mouse. After injection, mice were allowed to recover and roam freely in their cages, and were euthanized by CO2 inhalation at 15 min, 1 h, or 5 h (n=3 at each time point) post-injection. Blood was collected by cardiac puncture and placed into an appropriate test tube for scintillation counting. Tissues collected included heart, liver, kidneys, lungs, small intestine, large intestine, brain, bladder, spleen, stomach, pancreas, bone, thyroid, tail, urine, and feces. Tissues were weighed and then counted with a calibrated gamma counter (Packard, Cobra II model 5002) using three energy windows: 60-120 keV (window A), 180-260 keV (window B), and 400-480 keV (window C). Counting was performed both immediately after sacrifice and after 7 days; counts were decay corrected from the time of injection and then converted to the percentage of injected dose (% ID) per gram of tissue (% ID/g). […]\nThe biodistribution studies of [^225Ac(DOTA)]^− and ^225Ac(NO3)3 were carried out as described above for [^225Ac(macropa)]^+, with the following modifications. [^225Ac(DOTA)^− was prepared by adding ^225Ac(NO3)3 (338 μL, 1.1 MBq) to a solution of DOTA (100 μg, 20 mg/mL in H2O) in NH4OAc (467 μL, 0.15 M, pH 7). The pH of the solution was adjusted to 7 using NH4OAc (150 μL, 1 M, pH 7) and the solution was heated at 85° C. for 45 min. RCY>99% was confirmed by TLC as described above. [^225Ac(DOTA)]^− was diluted with saline to a final concentration of 0.05 MBq/100 μL, and 100 μL were injected into each mouse. ^225Ac(NO3)3 (˜58 μL, 0.4 MBq) was diluted and injected in the same manner as [^225Ac(DOTA)]^−. One mouse that was to be euthanized at the 5 h time point in the [^225Ac(DOTA)]^− study died shortly after injection. In the same manner, one mouse that was to be euthanized at the 1 h time point in the ^225Ac(NO3)3 study died.\nThe in vivo stability [^225Ac(macropa)]^+ was examined by comparing its biodistribution to those of ^225Ac(NO3)3 and [^225Ac(DOTA)]^−. C57BL/6 mice were injected via tail vein with 10-50 kBq of each radiometal complex and were sacrificed after 15 min, 1 h, or 5 h. The amount of ^225Ac retained in each organ was quantified by gamma counting and reported as the percent of injected dose per gram of tissue (% ID/g). The results of these studies are compiled in Tables 1-3. Inadequate stability of an ^225Ac complex leading to the loss of radioisotope in vivo is manifested by the accumulation of ^225Ac in the liver, spleen, and bone of mice.^[11,12,32] […] The biodistribution profile of [^225Ac(macropa)]^+ (FIG. 3B) differs markedly from that of ^225Ac(NO3)3. […] Its biodistribution profile was similar to that of [^225Ac(DOTA)]^− (FIG. 3C), which has been previously shown to retain ^225Ac in vivo.^[7]"}, "[3]": {"conditions": "1 h after i.v. injection, energy window C (400-480 keV)"}, "[4]": {"conditions": "5 h after i.v. injection, energy window A (60-120 keV)"}}}
{"smiles": "O=C([O-])c1cccc(CN2CCOCCOCCN(Cc3cccc(C(=O)O)n3)CCOCCOCC2)n1.[La+3]", "note": "[La^3+ complex]", "values": [{"measurement": "time complex remained intact", "setting": "[1]", "value": "up to 21 days"}]}
{"smiles": "O=C([O-])CN1CCN(CC(=O)[O-])CCN(CC(=O)[O-])CCN(CC(=O)[O-])CC1.[225Ac+3]", "note": "[[^225Ac(DOTA)]^−, reference compound]", "values": [{"measurement": "Organ distribution: brain", "setting": "[2]; [3]", "value": 0.0380, "unit": "% ID/g"}, {"measurement": "Organ distribution: blood", "setting": "[2]; [4]", "value": 0.0140, "unit": "% ID/g"}, {"measurement": "Organ distribution: lungs", "setting": "[2]; [4]", "value": 0.0390, "unit": "% ID/g"}]}
{"smiles": "O=[N+]([O-])[O-].O=[N+]([O-])[O-].O=[N+]([O-])[O-].[225Ac]", "note": "[^225Ac(NO3)3, reference compound]", "values": [{"measurement": "Organ distribution: feces", "setting": "[2]; 15 min after i.v. injection, energy window A (60-120 keV)", "value": 0.240, "unit": "% ID/g"}, {"measurement": "Organ distribution: feces", "setting": "[2]; 1 h after i.v. injection, energy window B (180-260 keV)", "value": 0.3300, "unit": "% ID/g"}, {"measurement": "Organ distribution: thyroids", "setting": "[2]; [3]", "value": 0.0000, "unit": "% ID/g"}, {"measurement": "Organ distribution: brain", "setting": "[2]; 5 h after i.v. injection, energy window B (180-260 keV)", "value": 0.0290, "unit": "% ID/g"}, {"measurement": "Organ distribution: brain", "setting": "[2]; 5 h after i.v. injection, energy window C (400-480 keV)", "value": 0.0430, "unit": "% ID/g"}, {"measurement": "blood clearance and excretion (in words)", "setting": "[2]; i.v. injection, up to 5 h", "value": "slow blood clearance and excretion"}, {"measurement": "organ accumulation (in words)", "setting": "[2]; i.v. injection, up to 5 h", "value": "large accumulation in the liver and spleen"}]}
